Test results from article PMC6496074, “The Evolution of Azole Resistance in Candida albicans Sterol 14α-Demethylase (CYP51) through Incremental Amino Acid Substitutions” (Antimicrobial Agents and Chemotherapy, 2019).
Converted amounts (≈) assume the structure as drawn.

What was measured:
[1] = biological target: T1, CaCYP51 Y132F+F145L (Candida albicans, UniProt P10613, F145L/Y132F); experiment: CYP51 reconstitution assay; assay type: biochemical; conditions: for remaining activity at 4 µM: 0.25 h, read-out: Residual CYP51 activity (%) ± SD
T1 construct: made in house; host or cells: E. coli DH5α (pCWori+)
T1 sequence (P10613 whole entry, looked up, stated change not applied): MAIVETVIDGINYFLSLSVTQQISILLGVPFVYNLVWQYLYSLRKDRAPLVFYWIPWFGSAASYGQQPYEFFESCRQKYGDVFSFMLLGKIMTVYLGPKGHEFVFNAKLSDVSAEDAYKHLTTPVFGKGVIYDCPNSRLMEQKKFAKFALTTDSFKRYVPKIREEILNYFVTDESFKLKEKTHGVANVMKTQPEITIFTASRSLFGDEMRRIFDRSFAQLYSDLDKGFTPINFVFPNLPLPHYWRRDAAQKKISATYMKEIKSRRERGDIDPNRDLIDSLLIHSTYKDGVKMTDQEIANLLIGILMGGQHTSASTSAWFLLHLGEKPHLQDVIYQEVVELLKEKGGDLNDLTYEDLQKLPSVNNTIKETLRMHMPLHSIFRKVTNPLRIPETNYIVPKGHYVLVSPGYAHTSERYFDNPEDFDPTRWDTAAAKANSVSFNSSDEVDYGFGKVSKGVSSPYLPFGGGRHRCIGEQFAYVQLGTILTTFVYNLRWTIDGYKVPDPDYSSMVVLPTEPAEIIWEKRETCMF
Experimental: Azole antifungal agents were added in 2.5 μl dimethyl sulfoxide, followed by 10 min of incubation at 37°C prior to assay initiation with 4 mM β-NADPH-Na4. The samples were then shaken for 15 min at 37°C. Sterol metabolites were recovered by extraction with ethyl acetate, followed by derivatization with 0.1 ml N,O-bis(trimethylsilyl)trifluoroacetamide (BSTFA)–trimethylchlorosilane (TMCS) (99:1) and 0.3 ml anhydrous pyridine (2 h at 80°C), prior to analysis by gas chromatography-mass spectrometry (GC-MS) ([52]). IC50 determinations were performed in duplicate.

[2] = test system: C. albicans SC5314 strain with CaCYP51 substitution Y132F+F145L; experiment: CLSI broth microdilution MIC; assay type: cell-based; conditions: Candida albicans, RPMI 1640, 24 h, 35°C, 50% reduction in growth
Excerpt: (§1) Strains expressing seven single mutations (Y132F, K143R, F145L, S405F, G448E, G450E, G464S) and three double mutations (Y132F+K143R, Y132F+F145L, D278N+G464S) were selected from a previous study ([36]). Two additional strains expressing the Y132H and D278N CYP51 gene mutations were created utilizing the SAT1/FLP cassette described previously ([44]). […] Successful transformants were screened on yeast-peptone-dextrose agar plates containing nourseothricin and confirmed via Southern hybridization. Genomic DNA from nourseothricin-screened transformants was digested with the HindIII restriction enzyme, and the resulting DNA digests were loaded on 1% agarose gels containing ethidium bromide. Digested samples were visualized briefly under UV light after approximately 2 h of electrophoresis (120 V) to confirm appropriate band separation. Lanes containing digested DNA in the gel were transferred onto a nitrocellulose membrane via vacuum suction, and DNA was cross-linked to the membrane through UV exposure. PCR amplification of the genomic DNA from parent isolate SC5314 using primers ERG11_Probe_F (5′-[…]-3′) and ERG11_Probe_R (5′-[…]-3′) generated a 254-bp product, used as a probe for the ERG11 gene locus. The probe was labeled and prepared using an Amersham AlkPhos direct labeling and detection system (GE Life Sciences) and hybridized to the membrane through overnight incubation at 55°C. Bands containing the hybridized, alkaline phosphatase-labeled probe corresponding to either wild-type ERG11 alleles (2,678 bp) or successfully replaced alleles with the SAT1/FLP cassette included (4,318 bp) or recycled (3,119 bp) were visualized with the CDP-Star chemiluminescent detection reagent. To confirm the sequence of the replaced ERG11 allele, a DNA fragment containing the ERG11 ORF and approximately 435 bp upstream of the start codon and 229 bp downstream of the ERG11 stop codon was PCR amplified using primers CaERG11_A_(ApaI) (5′-[…]-3′) and CaERG11_E_(XhoI) (5′-[…]-3′). The resulting DNA fragment was purified and Sanger sequenced on an ABI model 3130XL genetic analyzer with the following sequencing primers: CaERG11SeqA (5′-[…]-3′), CaERG11SeqB (5′-[…]-3′), CaERG11SeqC (5′-[…]-3′), CaERG11SeqD (5′-[…]-3′), CaERG11SeqE (5′-[…]-3′), and CaERG11SeqF (5′-[…]-3′).
(§2) Azole MICs were determined using the broth microdilution method described by the Clinical Laboratory and Standards Institute ([45], [46]). […] Measurements were read visually at 24 h after incubation at 35°C for a 50% reduction in growth from that in the drug-free control wells. MIC measurements were performed in duplicate, and the MIC was reported as the higher of two values for all strains tested. In cases where the duplicate MIC values were not identical, the higher of the two MIC values is reported. […] Additionally, no MICs differed by more than 2 dilutions for a given strain and drug.

[3] = test system: C. albicans SC5314 strain with CaCYP51 substitution F145L; experiment: CLSI broth microdilution MIC; assay type: cell-based; conditions: Candida albicans, RPMI 1640, 24 h, 35°C, 50% reduction in growth
Excerpt: as §1, §2

[4] = test system: C. albicans SC5314 strain with CaCYP51 substitution Y132H; experiment: CLSI broth microdilution MIC; assay type: cell-based; conditions: Candida albicans, RPMI 1640, 24 h, 35°C, 50% reduction in growth
Excerpt: as §1, §2

[5] = test system: C. albicans SC5314 strain with CaCYP51 substitution Y132F; experiment: CLSI broth microdilution MIC; assay type: cell-based; conditions: Candida albicans, RPMI 1640, 24 h, 35°C, 50% reduction in growth
Excerpt: as §1, §2

[6] = test system: fluconazole-susceptible parent strain SC5314; experiment: CLSI broth microdilution MIC; assay type: cell-based; conditions: Candida albicans; parent strain SC5314, no substitution; RPMI 1640, 24 h, 35°C, 50% reduction in growth
Excerpt: as §1, §2

[7] = test system: C. albicans SC5314 strain with CaCYP51 substitution G464S; experiment: CLSI broth microdilution MIC; assay type: cell-based; conditions: Candida albicans, RPMI 1640, 24 h, 35°C, 50% reduction in growth
Excerpt: as §1, §2

[8] = test system: C. albicans SC5314 strain with CaCYP51 substitution K143R; experiment: CLSI broth microdilution MIC; assay type: cell-based; conditions: Candida albicans, RPMI 1640, 24 h, 35°C, 50% reduction in growth
Excerpt: as §1, §2

[9] = test system: C. albicans SC5314 strain with CaCYP51 substitution G450E; experiment: CLSI broth microdilution MIC; assay type: cell-based; conditions: Candida albicans, RPMI 1640, 24 h, 35°C, 50% reduction in growth
Excerpt: as §1, §2

[10] = test system: C. albicans SC5314 strain with CaCYP51 substitution Y132F+K143R; experiment: CLSI broth microdilution MIC; assay type: cell-based; conditions: Candida albicans, RPMI 1640, 24 h, 35°C, 50% reduction in growth
Excerpt: as §1, §2

[11] = test system: C. albicans SC5314 strain with CaCYP51 substitution G448E; experiment: CLSI broth microdilution MIC; assay type: cell-based, Candida albicans; conditions: for MIC: Candida albicans, SC5314, RPMI 1640, 24 h, 35°C, 50% reduction in growth
Excerpt: as §1, §2

[12] = test system: C. albicans SC5314 strain with CaCYP51 substitution D278N+G464S; experiment: CLSI broth microdilution MIC; assay type: cell-based, Candida albicans; conditions: for MIC: Candida albicans, SC5314, RPMI 1640, 24 h, 35°C, 50% reduction in growth
Excerpt: as §1, §2

[13] = test system: C. albicans SC5314 strain with CaCYP51 substitution S405F; experiment: CLSI broth microdilution MIC; assay type: cell-based, Candida albicans; conditions: for MIC: Candida albicans, SC5314, RPMI 1640, 24 h, 35°C, 50% reduction in growth
Excerpt: as §1, §2

[14] = test system: C. albicans SC5314 strain with CaCYP51 substitution D278N; experiment: CLSI broth microdilution MIC; assay type: cell-based; conditions: Candida albicans, RPMI 1640, 24 h, 35°C, 50% reduction in growth
Excerpt: as §1, §2

With `OC(Cn1cncn1)(Cn1cncn1)c1ccc(F)cc1F` [Fluconazole, fluconazole] the IC50 [1] was 3890 ± 77 nM, the remaining activity at 4 µM [1] was 49.1 ± 1.76% and the MIC [2] was 32 µg/mL (≈ 104 µM). It also gave an MIC [3] of 4 µg/mL (≈ 13.1 µM), an MIC [4] of 2 µg/mL (≈ 6.53 µM) and an MIC [5] of 8 µg/mL (≈ 26.1 µM). For the same compound, the MIC [6] was 1 µg/mL (≈ 3.27 µM), the MIC [7] was 8 µg/mL (≈ 26.1 µM) and the MIC [8] was 16 µg/mL (≈ 52.2 µM). For the same compound, the MIC [9] was 16 µg/mL (≈ 52.2 µM), the MIC [10] was 32 µg/mL (≈ 104 µM) and the MIC [11] was 8 µg/mL (≈ 26.1 µM). The “fold increase in MIC over SC5314” value [12] was “at least 2 fold”, the MIC [12] was 8 µg/mL (≈ 26.1 µM) and the “fold increase in MIC over SC5314” value [13] was “at least 2 fold”. It also gave an MIC [13] of 4 µg/mL (≈ 13.1 µM).

Compound `CCC(C)n1ncn(-c2ccc(N3CCN(c4ccc(OCC5COC(Cn6cncn6)(c6ccc(Cl)cc6Cl)O5)cc4)CC3)cc2)c1=O` (stereo not shown) [Itraconazole, itraconazole] has an IC50 [1] of 364 ± 23 nM, a remaining activity at 4 µM [1] of 0.91 ± 0.05% and an MIC [2] of 0.25 µg/mL (≈ 0.354 µM). For the same compound, the MIC [3] was 0.25 µg/mL (≈ 0.354 µM), the MIC [14] was 0.125 µg/mL (≈ 0.177 µM) and the MIC [4] was 0.25 µg/mL (≈ 0.354 µM). It also gave an MIC [5] of 0.25 µg/mL (≈ 0.354 µM), an MIC [6] of 0.06 µg/mL (≈ 0.085 µM) and an MIC [7] of 0.25 µg/mL (≈ 0.354 µM). It also gave an MIC [8] of 0.5 µg/mL (≈ 0.709 µM), an MIC [9] of 0.25 µg/mL (≈ 0.354 µM) and an MIC [10] of 0.25 µg/mL (≈ 0.354 µM). The MIC [11] was 0.25 µg/mL (≈ 0.354 µM), the MIC [12] was 0.25 µg/mL (≈ 0.354 µM) and the MIC [13] was 0.25 µg/mL (≈ 0.354 µM).

For `CC[C@@H]([C@H](C)O)n1ncn(-c2ccc(N3CCN(c4ccc(OC[C@@H]5CO[C@@](Cn6cncn6)(c6ccc(F)cc6F)C5)cc4)CC3)cc2)c1=O` [Posaconazole, posaconazole], the IC50 [1] was 433 ± 102 nM, the remaining activity at 4 µM [1] was 2.64 ± 0.08% and the MIC [2] was ≤ 0.03 µg/mL. For the same compound, the MIC [3] was ≤ 0.03 µg/mL, the MIC [14] was ≤ 0.03 µg/mL and the MIC [4] was ≤ 0.03 µg/mL. For the same compound, the MIC [5] was ≤ 0.03 µg/mL, the MIC [6] was ≤ 0.03 µg/mL and the MIC [7] was ≤ 0.03 µg/mL. The MIC [8] was ≤ 0.03 µg/mL, the MIC [9] was ≤ 0.03 µg/mL and the MIC [10] was ≤ 0.03 µg/mL. For the same compound, the “fold increase in MIC over SC5314” value [11] was 2 fold, the MIC [11] was 0.06 µg/mL (≈ 0.0856 µM) and the MIC [12] was ≤ 0.03 µg/mL. For the same compound, the MIC [13] was ≤ 0.03 µg/mL.

`C[C@@H](c1ncncc1F)[C@](O)(Cn1cncn1)c1ccc(F)cc1F` [Voriconazole, voriconazole] gave a remaining activity at 4 µM [1] of 13.6 ± 0.19%, an MIC [2] of 1 µg/mL (≈ 2.86 µM) and an MIC [3] of 0.5 µg/mL (≈ 1.43 µM). For the same compound, the MIC [14] was ≤ 0.03 µg/mL, the MIC [4] was 0.25 µg/mL (≈ 0.716 µM) and the MIC [5] was 0.5 µg/mL (≈ 1.43 µM). The MIC [6] was ≤ 0.03 µg/mL, the MIC [7] was 0.25 µg/mL (≈ 0.716 µM) and the MIC [8] was 0.5 µg/mL (≈ 1.43 µM). It also gave an MIC [9] of 0.5 µg/mL (≈ 1.43 µM), an MIC [10] of 1 µg/mL (≈ 2.86 µM) and an MIC [11] of 0.25 µg/mL (≈ 0.716 µM). The MIC [12] was 0.25 µg/mL (≈ 0.716 µM) and the MIC [13] was 0.25 µg/mL (≈ 0.716 µM).
